This note sets out measurements from ChEMBL document CHEMBL3813616, “Discovery of novel 7-azaindoles as PDK1 inhibitors” (Bioorg Med Chem Lett, 2016).

For assay [1], the target named is Mitogen-activated protein kinase 3 (Homo sapiens) (UniProt P27361). Description: Inhibition of human MAPK3 (2 to 544 residues) assessed as enzyme activity at 1 uM using 33P ATP by radioactive filter binding assay. More on the design: scale not given: the % may be the effect or the level left.
The target in assay [2] is Ribosomal protein S6 kinase alpha-5 (Homo sapiens) (UniProt O75582). Description: Inhibition of human MSK1 (2 to 802 residues) assessed as enzyme activity at 1 uM using 33P ATP by radioactive filter binding assay. Set-up: scale not given: the % may be the effect or the level left.
The target of assay [3] is Serine/threonine-protein kinase pim-1 (Homo sapiens) (UniProt P11309). The experiment in a line: Inhibition of human PIM1 (2 to 313 residues) assessed as enzyme activity at 1 uM using 33P ATP by radioactive filter binding assay. More on the design: scale not given: the % may be the effect or the level left.
For assay [4], the target named is Serine/threonine-protein kinase pim-2 (Homo sapiens) (UniProt Q9P1W9). The experiment in a line: Inhibition of human PIM2 (2 to 334 residues) assessed as enzyme activity at 1 uM using 33P ATP by radioactive filter binding assay. Set-up: scale not given: the % may be the effect or the level left.
The target in assay [5] is Casein kinase II (Homo sapiens) (UniProt P67870+P68400+P19784). Description: Inhibition of human CK2 assessed as enzyme activity at 1 uM using 33P ATP by radioactive filter binding assay. Type of assay: protein-complex assay. More on the design: scale not given: the % may be the effect or the level left.
Assay [6] concerns the target T1, 3-phosphoinositide-dependent protein kinase 1 (Homo sapiens) (UniProt O15530).
T1 sequence (whole entry): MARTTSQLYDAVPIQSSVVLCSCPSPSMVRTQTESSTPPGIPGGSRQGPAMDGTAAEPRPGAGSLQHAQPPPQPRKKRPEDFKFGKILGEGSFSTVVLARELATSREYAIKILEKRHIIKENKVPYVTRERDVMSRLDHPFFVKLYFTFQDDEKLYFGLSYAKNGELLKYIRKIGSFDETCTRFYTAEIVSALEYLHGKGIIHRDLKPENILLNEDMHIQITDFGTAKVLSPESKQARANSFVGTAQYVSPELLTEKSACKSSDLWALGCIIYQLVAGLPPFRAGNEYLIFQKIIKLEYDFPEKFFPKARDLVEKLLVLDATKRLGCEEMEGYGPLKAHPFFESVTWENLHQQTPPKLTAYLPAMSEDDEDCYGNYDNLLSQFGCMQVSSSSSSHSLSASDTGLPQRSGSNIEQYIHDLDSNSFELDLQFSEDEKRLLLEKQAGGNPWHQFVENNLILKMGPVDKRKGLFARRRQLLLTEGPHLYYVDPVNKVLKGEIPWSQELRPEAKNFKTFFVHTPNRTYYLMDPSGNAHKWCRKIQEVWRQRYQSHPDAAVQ
The experiment in a line: Inhibition of human PDK1 (52 to 556 residues) assessed as enzyme activity at 1 uM using 33P ATP by radioactive filter binding assay. Set-up: scale not given: the % may be the effect or the level left.

For assay [7], the target named is T2, Eukaryotic elongation factor 2 kinase (Homo sapiens) (UniProt O00418).
T2 sequence (whole entry): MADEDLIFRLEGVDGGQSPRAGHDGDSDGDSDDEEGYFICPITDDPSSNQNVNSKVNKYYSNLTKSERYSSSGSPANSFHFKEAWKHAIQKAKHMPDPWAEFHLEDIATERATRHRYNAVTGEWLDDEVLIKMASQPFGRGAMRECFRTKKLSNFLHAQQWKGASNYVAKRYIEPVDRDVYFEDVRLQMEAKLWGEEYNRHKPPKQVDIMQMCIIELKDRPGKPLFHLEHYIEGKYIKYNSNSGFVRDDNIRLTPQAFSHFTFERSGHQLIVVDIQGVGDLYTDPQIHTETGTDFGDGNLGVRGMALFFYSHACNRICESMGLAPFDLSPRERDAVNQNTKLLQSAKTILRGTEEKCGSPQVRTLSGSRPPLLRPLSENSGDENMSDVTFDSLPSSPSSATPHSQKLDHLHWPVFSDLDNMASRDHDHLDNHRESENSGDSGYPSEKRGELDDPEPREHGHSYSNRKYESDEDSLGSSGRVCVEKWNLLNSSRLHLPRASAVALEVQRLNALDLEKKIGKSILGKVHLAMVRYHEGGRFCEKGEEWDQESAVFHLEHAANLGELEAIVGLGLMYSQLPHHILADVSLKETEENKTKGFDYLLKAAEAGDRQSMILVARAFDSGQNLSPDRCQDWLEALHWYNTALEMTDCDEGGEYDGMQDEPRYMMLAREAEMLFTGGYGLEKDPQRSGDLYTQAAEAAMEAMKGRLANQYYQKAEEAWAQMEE
Description: Inhibition of human EF2K (2 to 725 residues) assessed as enzyme activity at 1 uM using 33P ATP by radioactive filter binding assay. Set-up: scale not given: the % may be the effect or the level left.

Assay [8] addresses RAC-beta serine/threonine-protein kinase (Homo sapiens) (UniProt P31751). The experiment in a line: Inhibition of human PKBbeta (120 to 481 residues) assessed as enzyme activity at 1 uM using 33P ATP by radioactive filter binding assay. Set-up: scale not given: the % may be the effect or the level left.
The target in assay [9] is Maternal embryonic leucine zipper kinase (Homo sapiens) (UniProt Q14680). Description: Inhibition of human MELK (2 to 651 residues) assessed as enzyme activity at 1 uM using 33P ATP by radioactive filter binding assay. More on the design: scale not given: the % may be the effect or the level left.
Assay [10] deals with Fibroblast growth factor receptor 1 (Homo sapiens) (UniProt P11362). The experiment in a line: Inhibition of human FGFR1 (400 to 820 residues) assessed as enzyme activity at 1 uM using 33P ATP by radioactive filter binding assay. Set-up: scale not given: the % may be the effect or the level left.
Assay [11] addresses Tyrosine-protein kinase BTK (Homo sapiens) (UniProt Q06187). Description: Inhibition of human BTK (2 to 659 residues) assessed as enzyme activity at 1 uM using 33P ATP by radioactive filter binding assay. More on the design: scale not given: the % may be the effect or the level left.
The target of assay [12] is MAP kinase-interacting serine/threonine-protein kinase 1 (Homo sapiens) (UniProt Q9BUB5). The experiment in a line: Inhibition of human MNK1 (2 to 424 residues) assessed as enzyme activity at 1 uM using 33P ATP by radioactive filter binding assay. Set-up: scale not given: the % may be the effect or the level left.
Assay [13] concerns the target Calcium/calmodulin-dependent protein kinase type 1 (Homo sapiens) (UniProt Q14012). The experiment in a line: Inhibition of human CAMK1 (2 to 369 residues) assessed as enzyme activity at 1 uM using 33P ATP by radioactive filter binding assay. More on the design: scale not given: the % may be the effect or the level left.
The target in assay [14] is T3, 3-phosphoinositide-dependent protein kinase 1 (Homo sapiens, UniProt O15530).
T3 sequence (O15530 whole entry): T1 sequence (whole entry)
The experiment in a line: Inhibition of PDK1 in human PC3 cells assessed as reduction in AKT Thr308 phosphorylation after 45 mins. Type of assay: cell-based, PC-3.

Assay [15] addresses Mitogen-activated protein kinase 1 (Homo sapiens) (UniProt P28482). Description: Inhibition of human MAPK2 (2 to 360 residues) assessed as enzyme activity at 1 uM using 33P ATP by radioactive filter binding assay. Set-up: scale not given: the % may be the effect or the level left.
Assay [16] concerns the target Phosphatidylinositol 4,5-bisphosphate 3-kinase catalytic subunit gamma isoform (Homo sapiens, UniProt P48736). The experiment in a line: Inhibition of PI3K gamma (unknown origin).

The term IC50 denotes the concentration at which inhibition is half-maximal.

In the case of `CCCCc1cc(-c2c[nH]c3ncc(-c4cnn(C5CCNCC5)c4)cc23)nc(N)n1`, the Activity was -97% in assay [1]; -56% in assay [2]; -98% in [3]; -98% in assay [4]; 0% in assay [5]; -92% in [6]. Further, the Activity in assay [7] is -31%; in assay [8] it was -21%; in [9], -85%; in assay [10], -80%; in [11], -28%; in assay [12], -59%. Also, the values for the Activity in assay [13] and in [15] were -60% and -30%, respectively. Moreover, in assay [14], the IC50 came to 2.3 µM.
As to `CCc1cc(-c2c[nH]c3ncc(-c4cnn(C5CCNCC5)c4)cc23)nc(N)n1`, the Activity was -95% in assay [1]; -43% in assay [2]; -85% in assay [3]; -87% in assay [4]; -10% in [5]; -80% in assay [6]. In addition, the Activity was 3% in assay [7]; 3% in [8]; -81% in [9]; -79% in assay [10]; -31% in assay [11]; -46% in assay [12]. Moreover, the results for the Activity in assay [13] and in assay [15] were -49% and -32%, respectively. The IC50 in assay [14] is 13 µM; in assay [16], > 10 µM.
Regarding `Nc1nccc(-c2c[nH]c3ncccc23)n1` [MERIOLIN 1], the Activity in [1] is -77%; in assay [2] it was -49%; in assay [3] it was -62%; in [4], -39%; in assay [5], -22%; in assay [6], -12%. Further, the Activity in assay [7] is -20%; in assay [8], -9%; in assay [9], -64%; in [10], -8%; in [11] it was -13%; in assay [12] it was -15%. In addition, the Activity in assay [13] was -6%; in [15] it was -21%. The half-maximal inhibitory concentration (IC50) in [14] and in assay [16] was > 10 µM in each case.
Regarding `CCCCc1cc(-c2c[nH]c3ncccc23)nc(N)n1`, the Activity in [1] is -54%; in assay [2], -46%; in assay [3], -61%; in assay [4] it was -25%; in assay [5], 14%; in assay [6], -54%. For the same compound, the Activity was -1% in assay [7]; -3% in [8]; -89% in assay [9]; 3% in assay [10]; -23% in assay [12]; -3% in assay [13]. Moreover, the Activity in assay [15] was -9%. The IC50 in [14] and in assay [16] was > 10 µM each time.
